{
  "source": "patent EP0457908A1",
  "about": "“HYDROCHLORIDE 2,3,3a,4,5,6-HEXAHYDRO-8-CYCLOHEXYL-1H-PYRAZINO (3,2,1-j,k)CARBAZOL, METHOD OF OBTAINING IT AND A PHARMACEUTICAL PREPARATION OF ANTIDEPRESSIVE ACTION BASED ON IT” (priority 1989, dated 1991)",
  "key": {"mice, rats and rabbits": {"tested_on": "mice, rats and rabbits", "test": "Chronical toxicity, daily administration for 6 months", "type": "in vivo", "settings": "daily for 6 months", "source_text": "(§1) The acute and chronical toxicity of the compound according to the present invention was studied on mice, rats and rabbits.\nUpon a daily administration of the compound according to the present invention for the period of 6 months no functional disturbances on the part of the inner organs of the animals were observed."}, "rats": {"tested_on": "rats", "test": "Acute toxicity, rats", "type": "in vivo", "source_text": "as §1"}, "[1]": {"test": "Allergenic, embryotoxic and teratogenic effect", "settings": "in vivo"}, "white mice [2]": {"tested_on": "white mice", "test": "Enhancement of the effect of 5-hydroxytryptophane (head shaking)", "type": "in vivo", "description": "The compound according to the present invention was tasted for the exciting effect of 5-hydroxytryptophane (head shaking).\nThe compound according to the present invention in the doses of 1.0, 2.5, 5.0 and 10 mg/kg was administered orally 60 minutes prior to an intraperitoneal administration of 5-hydroxytryptophane (50 mg/kg)."}, "[3]": {"tested_on": "fruit fly, embryonic cells of rats, bone-marrow cells of mice, culture of human lymphocytes", "test": "Mutagenous effect tests", "settings": "genetic mutations, dominant lethal mutations, chromosome aberrations", "description": "The compound according to the present invention was also tested for a possible mutagenous effect by methods of evaluation of genetic mutations on fruit fly: dominant lethal mutations were studied on embryonic cells of rats, chromosome aberrations - in bone-marrow cells of mice and in a culture of human lymphocytes."}, "Solubility": {"test": "Solubility", "type": "physicochemical"}, "[4]": {"test": "Central and peripheral anticholinergic effect (oxotremorine, arecoline, galantamine)", "type": "in vivo", "settings": "10 and 25 mg/kg orally and 1.0, 2.0 and 5.0 mg/kg intravenously", "description": "The compound according to the present invention was also tested for its central and peripheral anticholinergic effect."}, "rabbits": {"tested_on": "rabbits", "test": "Bioelectrical activity of the brain (electroencephalogram), rabbits", "type": "in vivo", "source_text": "The study of the effect on the bioelectrical activity of the brain was effected in acute experiments using 8 consious cats immobilized with diplacin with a mass of 2.5-3.4 kg under conditions of a controlled breathing and 25 rabbits with a mass of 2.6-3.1 kg with chronically implanted electrodes. Recorded on an electroencephalograph was an electroencephalogram of the sensomotor, parietal and visual regions of the cerebral cortex in cats, plus that of the reticular formation of the midbrain, dorsal hippocamp and amygdala in rabbits."}, "male white mice": {"tested_on": "male white mice", "test": "Hyperlocomotion induced by d,l-amphetamine", "type": "in vivo", "settings": "10-20 minutes after d,l-amphetamine 2.5 mg/kg intraperitoneally, distilled water 1,924.5±177.6", "description": "The influence on hyperlocomotion induced by d,l-amphetamine was studied in experiments on male white mice with a mass of 20-22 g.\nThe locomotive activity of the mice was recorded 10-20 minutes after administration of d,l-amphetamine for 10 minutes."}, "white rats": {"tested_on": "white rats", "test": "Stereotypy induced by d,l-amphetamine", "type": "in vivo", "settings": "distilled water = 100", "description": "To evaluate the influence on stereotypy, the experiments were carried out on white rats of both sexes with a mass of 100-150 g. […] Stereotypy was assessed in points of from to 3 (after Janssen et al., 1967)."}, "[5]": {"tested_on": "normotensive rats of the Vistar line", "test": "Effect on arterial pressure and heart beat rate", "type": "in vivo", "description": "The compound according to the present invention was also tested for its effect on the cardiovascular system."}, "mice and rats": {"tested_on": "mice and rats", "test": "Carcinogenic properties, chronic experiment", "type": "in vivo"}, "white mice [6]": {"tested_on": "white mice", "test": "Porsolt's swimming behaviour test (duration of immobilization)", "type": "in vivo", "settings": "for Duration of immobilization, %: distilled water = 100", "description": "The effect of the compound according to the present invention on the duration of immobilization in Porsolt's swimming behaviour test (Porsolt et al., 1977) in experiments on white mice of both sexes with a mass of 16-18 g. […] Sixty minutes after the last (or a single) administration of the preparations, the mice were placed into cylinders (10 cm diameter, 25 cm height) filled with water to 6 cm. The temperature of water was 21-22 °C. […] The number and duration of all stops in swimming (immobilization) over the observation period were recorded."}, "white mice [7]": {"tested_on": "white mice", "test": "Reserpine-induced blepharoptosis", "type": "in vivo", "settings": "acute and chronical experiments", "description": "The compound according to the present invention was tested for the ability to decrease depriming effects of reserpin (blepharoptosis, hypothermia and the like).\nTests were carried out on white mice of both sexes with a mass of 16-18 g.\nThe compound according to the present invention was orally administered in a single dose and repeatedly during 18 days.\nThe compound according to the present invention was administered in the single doses of 1, 2.5 and 5 mg/kg; repeatedly - in the doses of 0.5, 1.0, 2.5 and 5 mg/kg. The single-time administration and the last administration of the 18 days' course were effected 60 minutes prior to the intraperitoneal administration of reserpine (2.5 mg/kg). For a comparative assessment in these and other experiments pyrazidol and imipramine were also administered."}, "[8]": {"settings": "5-days' administration, 1.0 mg/kg orally (dose from row order)"}, "[9]": {"settings": "5-days' administration, 2.5 mg/kg orally (dose from row order)"}, "[10]": {"settings": "5-days' administration, 5.0 mg/kg orally (dose from row order)"}, "[11]": {"settings": "18-days' administration, 2.5 mg/kg orally (dose from row order)"}, "[12]": {"settings": "18-days' administration, 5.0 mg/kg orally (dose from row order)"}, "[13]": {"settings": "single administration, 1.0 mg/kg orally"}, "[14]": {"settings": "single administration, 2.5 mg/kg orally"}, "[15]": {"settings": "single administration, 5.0 mg/kg orally"}},
  "note": "Where two headings read alike, the source gives them in different places.",
  "data": [
    {"substance": "2,3,3a,4,5,6-hexahydro-8-cyclohexyl-1H-pyrazino-(3,2,1-j,k)-carbazole hydrochloride [Compound of the present invention]", "values": [
      {"measurement": "pathomorphological study", "setting": "mice, rats and rabbits; 100 mg/kg", "result": "non-specific pathological changes in parenchymatous organs which were of a reversible character"},
      {"measurement": "pathomorphological study", "setting": "mice, rats and rabbits; 10 and 50 mg/kg", "result": "no pathological changes"},
      {"measurement": "LD₅₀", "setting": "rats", "result": 2.5, "unit": "g/kg"},
      {"measurement": "LD₅₀", "setting": "rats; oral administration", "result": "2,500 mg/kg"},
      {"measurement": "allergenic, embryotoxic or teratogenic effect", "setting": "[1]", "result": "did not exhibit an allergenic effect, an embryotoxic or teratogenic effect"},
      {"measurement": "more active than pyrazidol in enhancing the convulsive activity of 5-hydroxytryptophane", "setting": "white mice [2]; mice, ratio of ED₅₀", "result": "about 8 times"},
      {"measurement": "ED₅₀, the dose at which head shaking were noticed in 50% of the animals", "setting": "white mice [2]; orally, 60 minutes prior to 5-hydroxytryptophane 50 mg/kg intraperitoneally, read 25 minutes after", "result": "2.5 (2.1-3.0) mg/kg"},
      {"measurement": "mutagenic properties", "setting": "[3]", "result": "revealed no mutagenic properties"},
      {"measurement": "solubility in a 95% ethanol and chloroform", "setting": "Solubility", "result": "very sparingly soluble"},
      {"measurement": "solubility in water and ether", "setting": "Solubility", "result": "substantially insoluble"},
      {"measurement": "central and peripheral anticholinergic effect", "setting": "[4]", "result": "absence of the anticholinergic effect"},
      {"measurement": "amplitude of sinusoidal regular waves (teta-activity)", "setting": "rabbits; 2 mg/kg, rabbits, hippocampus", "result": "150-200 µV"},
      {"measurement": "frequency of sinusoidal regular waves (teta-activity)", "setting": "rabbits; 2 mg/kg, rabbits, hippocampus", "result": "4-6 oscillations per second"},
      {"measurement": "frequency of regular low-amplitude rhythms", "setting": "rabbits; 2 mg/kg, rabbits, visual, parietal regions and reticular formation of the midbrain", "result": "5-7 oscillations per second"},
      {"measurement": "time after administration at which the variations in the electroencephalogram appeared", "setting": "rabbits; 2 mg/kg, species not given", "result": "75-90 minutes"},
      {"measurement": "time after administration at which the effect of activation was recorded", "setting": "rabbits; 5 mg/kg, species not given", "result": "45 to 60", "unit": "min"},
      {"measurement": "Average value of locomotor activity of a group of 5 mice for 10 minutes", "setting": "male white mice; 1.0 mg/kg oral", "result": "3,482.6±445.5"},
      {"measurement": "Average value of locomotor activity of a group of 5 mice for 10 minutes", "setting": "male white mice; 2.5 mg/kg oral", "result": "3,315.5±462.6"},
      {"measurement": "Average value of locomotor activity of a group of 5 mice for 10 minutes", "setting": "male white mice; 5.0 mg/kg oral", "result": "4,885.0±537.2"},
      {"measurement": "Stereotypy (tolal, for 4 measurements for 4 hours after hypodermal administration of d,l-amphetamine), %", "setting": "white rats; oral dose 2.5 mg/kg", "result": 145, "unit": "%"},
      {"measurement": "Stereotypy (tolal, for 4 measurements for 4 hours after hypodermal administration of d,l-amphetamine), %", "setting": "white rats; oral dose 5.0 mg/kg", "result": 170, "unit": "%"},
      {"measurement": "Stereotypy (tolal, for 4 measurements for 4 hours after hypodermal administration of d,l-amphetamine), %", "setting": "white rats; oral dose 10.0 mg/kg", "result": 225, "unit": "%"},
      {"measurement": "heart beat rate", "setting": "[5]; 10 mg/kg oral daily for 5 days", "result": "did not change the heart beat rate"},
      {"measurement": "effect on the arterial pressure and heart beat rate", "setting": "[5]; 1-100 mg/kg orally, free behaviour", "result": "no essential effect"},
      {"measurement": "carcinogenic properties", "setting": "mice and rats", "result": "did not reveal carcinogenic properties"},
      {"measurement": "Duration of immobilization, Seconds, M±m", "setting": "white mice [6]; [8]", "result": "102 ± 8.1", "unit": "s"},
      {"measurement": "Duration of immobilization, %", "setting": "white mice [6]; [8]", "result": 61, "unit": "%"},
      {"measurement": "Duration of immobilization, Seconds, M±m", "setting": "white mice [6]; [9]", "result": "102 ± 6.1", "unit": "s"},
      {"measurement": "Duration of immobilization, %", "setting": "white mice [6]; [9]", "result": 61, "unit": "%"},
      {"measurement": "Duration of immobilization, Seconds, M±m", "setting": "white mice [6]; [10]", "result": "88 ± 5.2", "unit": "s"},
      {"measurement": "Duration of immobilization, %", "setting": "white mice [6]; [10]", "result": 53, "unit": "%"},
      {"measurement": "Duration of immobilization, %", "setting": "white mice [6]; 18-days' administration, 1.0 mg/kg orally (dose from row order)", "result": 58, "unit": "%"},
      {"measurement": "Duration of immobilization, Seconds, M±m", "setting": "white mice [6]; [11]", "result": "96 ± 11.0", "unit": "s"},
      {"measurement": "Duration of immobilization, %", "setting": "white mice [6]; [11]", "result": 52, "unit": "%"},
      {"measurement": "Duration of immobilization, Seconds, M±m", "setting": "white mice [6]; [12]", "result": "75 ± 9.8", "unit": "s"},
      {"measurement": "Duration of immobilization, %", "setting": "white mice [6]; [12]", "result": 41, "unit": "%"},
      {"measurement": "active in doses lower than those of imipramine and pyrazidol", "setting": "white mice [6]; Porsolt's test, mice, oral", "result": 10, "unit": "times"},
      {"measurement": "Duration of immobilization, Seconds, M±m", "setting": "white mice [6]; [13]", "result": "145 ± 10.4", "unit": "s"},
      {"measurement": "Duration of immobilization, %", "setting": "white mice [6]; [13]", "result": 92, "unit": "%"},
      {"measurement": "Duration of immobilization, Seconds, M±m", "setting": "white mice [6]; [14]", "result": "111 ± 9.9", "unit": "s"},
      {"measurement": "Duration of immobilization, %", "setting": "white mice [6]; [14]", "result": 69, "unit": "%"},
      {"measurement": "Duration of immobilization, Seconds, M±m", "setting": "white mice [6]; [15]", "result": "105 ± 8.1", "unit": "s"},
      {"measurement": "Duration of immobilization, %", "setting": "white mice [6]; [15]", "result": 63, "unit": "%"},
      {"measurement": "anti-reserpine effect, superior to pyrazidol", "setting": "white mice [7]", "result": "more than 10 times"}
    ]}
  ]
}
